US20250179550A1, “Methods to imbue polymeric materials with new structures and functions” (The Regents of the University of California, priority 2022, published 2025)

Columns and labels:
MicD-F [1] = test: MicD-F-catalyzed cyclodehydration of leader-free peptide substrates, LC-MS; format: biochemical, Microcystis aeruginosa; conditions: pH 8.0, 37° C.; for cyclodehydration by MicD-F: 50 mol % MicD-F, 24 hours
Method: We began by exploring the tolerance of MicD-F for sequences containing non-α-amino acid monomers at the +1 site (FIG. 8A and FIG. 9A-B). A series of nine potential substrates were prepared in which a non-α-amino acid preceded the reaction site (substrates 1(a-i)). Monomers evaluated included arenes, aramids, fluorophores, and linear and cyclic β-amino acids. […] Cyclization was analyzed initially via liquid chromatography-mass spectrometry (LC-MS) and the extent of product formation estimated by integrating the extracted ion chromatogram (FIG. 9B-C). Virtually every substrate examined underwent MicD-F-catalyzed cyclization to the corresponding thiazoline under these conditions. Substrates containing electron-withdrawing or donating aromatic rings, bulky multi-ring systems, and linear and cyclic β-amino acids were all cyclized efficiently by MicD-F, with yields between 91 and 99% (products 2(a-i)). UHPLC analysis of each reaction mixture confirmed that thiazolines 2a-i were the sole reaction products under these conditions (FIG. 16).
A typical reaction scale for analysis via LC-MS was 30 μL. Peptide substrate stock (3 μL) suspended at 1 mM (10 mM bicine, 150 mM NaCl, 1 mM TCEP, pH 9.0) was added to 24 μL of reaction buffer (6.25 mM ATP, 6.25 mM MgCl2, 100 mM bicine, 150 mM NaCl, 1 mM TCEP, pH 8.0 or 9.0). Separately, an aliquot of MicD-F (500 M in 20 mM HEPES, 150 mM NaCl, 1 mM TCEP, pH 7.4) was thawed on ice. The thawed enzyme aliquot was then diluted with cold storage buffer (20 mM HEPES, 150 mM NaCl, 1 mM TCEP, pH 7.4) to a concentration equal to 10× the desired enzyme concentration. The peptide and enzyme solutions were then incubated at 37° C. for 15 minutes. After temperature equilibration, enzyme solution (3 μL) was added to the peptide solution and gently pipette mixed. The resulting solution was then incubated at 37° C. for the indicated amount of time before LC-MS analysis.
To remove 6×His-tagged enzymes, Ni-NTA (Qiagen, Hilden, Germany) slurry and crude reaction were mixed 1:1 by volume and incubated on ice for 30 minutes with occasional agitation. […]

MicD-F and ArtGox [2] = test: One-pot cyclodehydration and dehydrogenation of peptide substrates by MicD-F and ArtGox, LC-MS; format: biochemical, Microcystis aeruginosa; Arthrospira platensis
From the text: Next, we explored whether MicD-F and ArtGox could act in synergy to convert peptides containing non-α-amino acids at the +1 site directly into the corresponding thiazoles 3(a-i) (FIG. 9A). […] ArtGox efficiently oxidized each thiazoline to the corresponding thiazole in yields that exceeded 97% over the two steps for every example (products 3(a-i)) (FIGS. 9B and D). UHPLC analysis of each reaction mixture confirmed that thiazoles 3a-e were the sole reaction product. Coelution with excess flavin mononucleotide precluded UHPLC analysis of thiazoles 3f-i (FIG. 18).
Reactions were analyzed as described above. Under these conditions, every peptide evaluated was a substrate for MicD-F and a few were substrates for both MicD-F and ArtGox (FIG. 10B-C). Substrates containing β^3-amino acid-, β^2-amino acid-, or cyclic β^2,β^3-amino acids at the −1 site (substrates 4(a-d)), were fully consumed under these conditions (<1% unmodified peptide). […] In contrast, substrate 4b, with geminal β^2-methyl substituents, was converted into a 30/70 mixture of thiazoline 5b and thiazole 6b. Substrates 4e-g containing aramid monomers at the −1 position reacted more slowly under these conditions, producing the analogous thiazoline products in 65-85% yield after 24 h reaction at pH 8 (FIG. 10B-C). […] With the exception of substrate 4c, increasing the pH to 9.0 promoted formation of the desired thiazole product (FIG. 21B-C). However, even under these conditions only substrate 4b (88%) yielded greater than 41% thiazole product (FIG. 21B-C). […] ArtGox appears especially intolerant of substitution or sp^2 hybridization at the β^3-position of substrates at the −1 site.
A typical reaction scale for analysis via LC-MS was 30 μL. Peptide substrate stock (3 L) suspended at 1 mM in 10 mM bicine, 150 mM NaCl, 1 mM TCEP, pH 9.0 was added to 21 L of reaction buffer (7.14 mM ATP, 7.14 mM MgCl2, 2.86 mM FMN, 100 mM bicine, 150 mM NaCl, 1 mM TCEP, pH 8.0 or 9.0). Separately, aliquots of MicD-F (500 M in 20 mM HEPES, 150 mM NaCl, 1 mM TCEP, pH 7.4) and ArtGox (800 M in 20 mM HEPES, 150 mM NaCl, 1 mM TCEP, pH 7.4) were thawed on ice. The thawed enzyme aliquots were then diluted with cold storage buffer (20 mM HEPES, 150 mM NaCl, 1 mM TCEP, pH 7.4) to a concentration equal to 10× the desired enzyme concentration. The peptide and enzyme solutions were then incubated at 37° C. for 15 minutes. After temperature equilibration, enzyme solutions (3 μL of each) were added to the peptide solution and gently pipette mixed. The resulting solution was then incubated at 37° C. for the indicated amount of time before LC-MS analysis.
To remove 6×His-tagged enzymes, Ni-NTA (Qiagen, Hilden, Germany) slurry and crude reaction were mixed 1:1 by volume and incubated on ice for 30 minutes with occasional agitation. The Ni-NTA resin was then removed by centrifugation at 21,300×g for 10 minutes at 4° C. Enzyme-depleted reaction mixture (1 μL) was used for LC-MS analysis which was performed on an Agilent 1290 Infinity II HPLC connected to an Agilent 6530B QTOF AJS-ESI. The mobile phase for LC-MS was water and acetonitrile with 0.1% (v/v) formic acid and a flow rate of 0.7 mL/min. Each sample was injected onto an Eclipse XDB C-18 column (2.1×50 mm, 1.8-Micron, room temperature, Agilent) and separated using a linear gradient from 5 to 95% acetonitrile over 4.5 minutes after an initial hold at 5% acetonitrile for 0.5 minutes. The following parameters were used during acquisition: Fragmentor voltage 175 V, gas temperature 300° C., gas flow 8 L/min, sheath gas temperature 350° C., sheath gas flow 11 L/min, nebulizer pressure 35 psi, skimmer voltage 65 V, Vcap 3500 V, 1 spectra/s.

MicD-F and ArtGox [3] = test: Reaction of protein substrates with MicD-F and ArtGox in tandem, LC-MS deconvoluted mass; format: biochemical, Microcystis aeruginosa; Arthrospira platensis; conditions: 50 mol % MicD-F, 80 mol % ArtGox, pH 9.0, 37° C., 24 hours
Method: Reactions of proteins with MicD-F and ArtGox were performed in the manner described above with minor modifications. The substrate stock was a 1 mM solution of protein in 20 mM HEPES, 150 mM NaCl, 1 mM TCEP, pH 7.4. Reactions were carried out at either 25° C. or 37° C. as indicated.
(§1) Unprocessed reaction mixture (1 μL) was used for LC-MS analysis which was performed on an Agilent 1290 Infinity II HPLC connected to an Agilent 6530B QTOF AJS-ESI. The mobile phase for LC-MS was water and acetonitrile with 0.1% (v/v) formic acid and a flow rate of 0.4 mL/min. Each sample was injected onto a Poroshell 300SB-C8 column (2.1×75 mm, 5-Micron, room temperature, Agilent) using a linear gradient from 5 to 55% acetonitrile over 8 minutes after an initial hold at 5% acetonitrile for 2 minutes (0.4 mL/min). The following parameters were used during acquisition: Fragmentor voltage 225 V, gas temperature 300° C., gas flow 10 L/min, sheath gas temperature 350° C., sheath gas flow 11 L/min, nebulizer pressure 35 psi, skimmer voltage 65 V, Vcap 5000 V, 1 spectra/s. Intact protein masses were obtained via deconvolution using the Maximum Entropy algorithm in Mass Hunter Bioconfirm (V10, Agilent).

MicD-F [4] = test: Reaction of protein substrates (mCherry and Rop variants) with MicD-F, LC-MS deconvoluted mass; format: biochemical, Microcystis aeruginosa; conditions: 50 mol % MicD-F, 24 hours
Method: Reactions of proteins with MicD-F were performed in the manner described above with minor modifications. Namely, the substrate stock was a 1 mM solution of protein in 20 mM HEPES, 150 mM NaCl, 1 mM TCEP, pH 7.4.
as §1

[5] = 50 mol % MicD-F, 8 mol % ArtGox, pH 8.0, 37° C., 24 h
[6] = 50 mol % MicD-F, 8 mol % ArtGox, pH 8.0, 37° C., 24 h, −1 site substrates

Sequence of MicD-F (as listed by the source): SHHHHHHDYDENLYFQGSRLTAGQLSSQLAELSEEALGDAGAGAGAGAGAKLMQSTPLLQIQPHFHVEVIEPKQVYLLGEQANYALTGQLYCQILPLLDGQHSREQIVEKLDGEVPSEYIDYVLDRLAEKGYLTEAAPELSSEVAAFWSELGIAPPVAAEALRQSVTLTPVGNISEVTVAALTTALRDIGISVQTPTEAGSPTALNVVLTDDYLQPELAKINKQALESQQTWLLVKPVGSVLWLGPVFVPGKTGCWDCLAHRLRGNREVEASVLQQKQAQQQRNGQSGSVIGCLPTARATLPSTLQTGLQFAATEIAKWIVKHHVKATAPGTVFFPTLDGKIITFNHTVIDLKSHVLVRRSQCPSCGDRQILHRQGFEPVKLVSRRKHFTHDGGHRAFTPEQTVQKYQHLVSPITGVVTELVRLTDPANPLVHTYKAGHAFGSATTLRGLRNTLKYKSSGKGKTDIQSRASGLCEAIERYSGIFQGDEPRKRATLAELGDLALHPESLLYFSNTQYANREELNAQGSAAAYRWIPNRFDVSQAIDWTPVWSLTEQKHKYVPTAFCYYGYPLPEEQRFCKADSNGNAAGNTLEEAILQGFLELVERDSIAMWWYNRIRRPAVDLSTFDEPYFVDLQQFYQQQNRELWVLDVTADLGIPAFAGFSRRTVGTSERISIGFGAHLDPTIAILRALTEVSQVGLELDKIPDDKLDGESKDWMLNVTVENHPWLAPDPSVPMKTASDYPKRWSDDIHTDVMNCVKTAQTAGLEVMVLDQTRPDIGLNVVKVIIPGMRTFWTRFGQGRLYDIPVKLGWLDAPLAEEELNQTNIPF

For ICAYDG [reference compound], which “conversion by MicD-F” value (MicD-F [1]; 5 mol % MicD-F, 4 h) is on record?
The value was “complete conversion”.

And the “two-step conversion into thiazole” value (MicD-F and ArtGox [2]; 5 mol % MicD-F, 40 mol % ArtGox, pH 8.0, 37° C., 16 h)?
Its value is “complete two-step conversion”.

With ITAYDG as the substance, how does the “cyclodehydration by MicD-F” value (MicD-F [1]) read?
Its value is “significant cyclodehydration”.

With IC-[B3-HIle]-AYDG [substrate 4a] as the substance, how does the “conversion into thiazoline” value (MicD-F and ArtGox [2]; [5]) read?
Its value is “converted cleanly”.

What about the “thiazole formation” value (MicD-F and ArtGox [2]; [5]) of the same substance?
Its value is “little”.

What does the source list for “mCherryC+: mCherry variant with MCAYDG appended to the C-terminus, SEQ ID NO: 9”?
thiazole installation (mass shift relative to MicD-F only) (MicD-F and ArtGox [3]): expected −2 Da shift; cyclodehydration of mCherry variants to thiazoline (loss of water) (MicD-F [4]; pH 9.0, 37° C.): virtually complete conversion; cyclodehydration of mCherry variants to thiazoline (loss of water) (MicD-F [4]; pH 9.0, 42° C.): nearly completely converted

Which “cyclodehydration by MicD-F” value (MicD-F [1]) does the source give for “ICIAYDG [model peptide with α-amino acid Ile between the site of cyclization and the AYD motif, reference compound]” here?
Its value is “complete reaction”.

And the “thiazole formation” value (MicD-F and ArtGox [2]; [5])?
Its value is “complete conversion”.

Which results are given for IC-[B2-Dimethyl]-AYDG [substrate 4b]?
yield of thiazole product (MicD-F and ArtGox [2]; [6]): 70%; yield of thiazoline product (MicD-F and ArtGox [2]; [6]): 30%; yield of thiazole product (MicD-F and ArtGox [2]; 50 mol % MicD-F, 8 mol % ArtGox, pH 9.0, 37° C., 24 h, −1 site substrates): 88%

How did the “conversion into thiazoline” value (MicD-F and ArtGox [2]; [5]) turn out when IC-[ACHC]-AYDG [substrate 4c] was run?
Its value is “converted cleanly”.

And the “thiazole formation” value (MicD-F and ArtGox [2]; [5])?
The value was “no”.

Which results are given for IC-[ACPC]-AYDG [substrate 4d]?
conversion into thiazoline (MicD-F and ArtGox [2]; [5]): converted cleanly; thiazole formation (MicD-F and ArtGox [2]; [5]): no
